Measured values taken from patent US20210267944A1 (BioXcel Therapeutics, Inc., priority 2018, published 2021).
Counter-ions that a name gives are not always drawn. Like-named read-outs stand apart in the source and are kept apart here.

Details: opioid withdrawal patients
From the text: The participants were continuously monitored by the site personnel, including blood pressure and heart rate, from the start of the infusion through resolution of sedation and/or any adverse effects on blood pressure or heart rate. An electrocardiogram was obtained at screening, pre-infusion and upon resolution of sedation, a predetermined reduction in COWS or return to baseline.

SMILES: Cc1cccc([C@H](C)c2cnc[nH]2)c1C [dexmedetomidine hydrochloride]
- Diastolic blood pressure Max (Day-1, 00:00 Hr): 110 mm of Hg
- Diastolic blood pressure Mean ± SD (Day-1, 00:00 Hr): 83.81 ± 12.99 mm of Hg
- Diastolic blood pressure Median (Day-1, 00:00 Hr): 82 mm of Hg
- Diastolic blood pressure Min (Day-1, 00:00 Hr): 64 mm of Hg
- Heart rate Max (Day-1, 00:00 Hr): 106 beats/minutes
- Heart rate Mean ± SD (Day-1, 00:00 Hr): 69.9 ± 16.37 beats/minutes
- Heart rate Median (Day-1, 00:00 Hr): 66 beats/minutes
- Heart rate Min (Day-1, 00:00 Hr): 55 beats/minutes
- Diastolic blood pressure Max (Day-1, 00:15 Hr): 96 mm of Hg
- Diastolic blood pressure Mean ± SD (Day-1, 00:15 Hr): 78.09 ± 9.99 mm of Hg
- Diastolic blood pressure Median (Day-1, 00:15 Hr): 76 mm of Hg
- Diastolic blood pressure Min (Day-1, 00:15 Hr): 62 mm of Hg
- Heart rate Max (Day-1, 00:15 Hr): 86 beats/minutes
- Heart rate Mean ± SD (Day-1, 00:15 Hr): 66.36 ± 11.9 beats/minutes
- Heart rate Median (Day-1, 00:15 Hr): 67 beats/minutes
- Heart rate Min (Day-1, 00:15 Hr): 49 beats/minutes
- Diastolic blood pressure Max (Day-1, 00:30 Hr): 86 mm of Hg
- Diastolic blood pressure Mean ± SD (Day-1, 00:30 Hr): 70 ± 8.8 mm of Hg
- Diastolic blood pressure Median (Day-1, 00:30 Hr): 68 mm of Hg
- Diastolic blood pressure Min (Day-1, 00:30 Hr): 59 mm of Hg
- Heart rate Max (Day-1, 00:30 Hr): 84 beats/minutes
- Heart rate Mean ± SD (Day-1, 00:30 Hr): 66.88 ± 12.26 beats/minutes
- Heart rate Median (Day-1, 00:30 Hr): 70 beats/minutes
- Heart rate Min (Day-1, 00:30 Hr): 52 beats/minutes
- Diastolic blood pressure Max (Day-1, 00:45 Hr): 86 mm of Hg
- Diastolic blood pressure Mean ± SD (Day-1, 00:45 Hr): 74.5 ± 7.67 mm of Hg
- Diastolic blood pressure Median (Day-1, 00:45 Hr): 76 mm of Hg
- Diastolic blood pressure Min (Day-1, 00:45 Hr): 61 mm of Hg
- Heart rate Max (Day-1, 00:45 Hr): 89 beats/minutes
- Heart rate Mean ± SD (Day-1, 00:45 Hr): 68.83 ± 14.91 beats/minutes
- Heart rate Median (Day-1, 00:45 Hr): 66 beats/minutes
- Heart rate Min (Day-1, 00:45 Hr): 50 beats/minutes
- Diastolic blood pressure Max (Day-1, 01:00 Hr): 77 mm of Hg
- Diastolic blood pressure Mean ± SD (Day-1, 01:00 Hr): 71.4 ± 6.05 mm of Hg
- Diastolic blood pressure Median (Day-1, 01:00 Hr): 72 mm of Hg
- Diastolic blood pressure Min (Day-1, 01:00 Hr): 60 mm of Hg
- Heart rate Max (Day-1, 01:00 Hr): 85 beats/minutes
- Heart rate Mean ± SD (Day-1, 01:00 Hr): 69.6 ± 11.35 beats/minutes
- Heart rate Median (Day-1, 01:00 Hr): 66 beats/minutes
- Heart rate Min (Day-1, 01:00 Hr): 54 beats/minutes
- Diastolic blood pressure Max (Day-1, 01:15 Hr): 82 mm of Hg
- Diastolic blood pressure Mean ± SD (Day-1, 01:15 Hr): 72 ± 8.16 mm of Hg
- Diastolic blood pressure Median (Day-1, 01:15 Hr): 72 mm of Hg
- Diastolic blood pressure Min (Day-1, 01:15 Hr): 62 mm of Hg
- Heart rate Max (Day-1, 01:15 Hr): 76 beats/minutes
- Heart rate Mean ± SD (Day-1, 01:15 Hr): 72 ± 2.82 beats/minutes
- Heart rate Median (Day-1, 01:15 Hr): 70 beats/minutes
- Heart rate Min (Day-1, 01:15 Hr): 70 beats/minutes
- Diastolic blood pressure Max (Day-1, 01:30 Hr): 66 mm of Hg
- Diastolic blood pressure Mean ± SD (Day-1, 01:30 Hr): 61 ± 5 mm of Hg
- Diastolic blood pressure Median (Day-1, 01:30 Hr): 61 mm of Hg
- Diastolic blood pressure Min (Day-1, 01:30 Hr): 56 mm of Hg
- Heart rate Max (Day-1, 01:30 Hr): 61 beats/minutes
- Heart rate Mean ± SD (Day-1, 01:30 Hr): 60.5 ± 0.5 beats/minutes
- Heart rate Median (Day-1, 01:30 Hr): 60.5 beats/minutes
- Heart rate Min (Day-1, 01:30 Hr): 60 beats/minutes
- Diastolic blood pressure Max (Day-1, 30 min. post Infusion): 86 mm of Hg
- Diastolic blood pressure Mean ± SD (Day-1, 30 min. post Infusion): 75.27 ± 9.22 mm of Hg
- Diastolic blood pressure Median (Day-1, 30 min. post Infusion): 73 mm of Hg
- Diastolic blood pressure Min (Day-1, 30 min. post Infusion): 60 mm of Hg
- Heart rate Max (Day-1, 30 min. post Infusion): 99 beats/minutes
- Heart rate Mean ± SD (Day-1, 30 min. post Infusion): 65.18 ± 14.03 beats/minutes
- Heart rate Median (Day-1, 30 min. post Infusion): 62 beats/minutes
- Heart rate Min (Day-1, 30 min. post Infusion): 50 beats/minutes
- Diastolic blood pressure Max (Day-1, Screening): 108 mm of Hg
- Diastolic blood pressure Mean ± SD (Day-1, Screening): 84.18 ± 13.13 mm of Hg
- Diastolic blood pressure Median (Day-1, Screening): 81 mm of Hg
- Diastolic blood pressure Min (Day-1, Screening): 63 mm of Hg
- Heart rate Max (Day-1, Screening): 108 beats/minutes
- Heart rate Mean ± SD (Day-1, Screening): 68.54 ± 15.32 beats/minutes
- Heart rate Median (Day-1, Screening): 66 beats/minutes
- Heart rate Min (Day-1, Screening): 55 beats/minutes
- Diastolic blood pressure Max (Day-2, 00:00 Hr): 88 mm of Hg
- Diastolic blood pressure Mean ± SD (Day-2, 00:00 Hr): 78.4 ± 7.86 mm of Hg
- Diastolic blood pressure Median (Day-2, 00:00 Hr): 79 mm of Hg
- Diastolic blood pressure Min (Day-2, 00:00 Hr): 69 mm of Hg
- Heart rate Max (Day-2, 00:00 Hr): 94 beats/minutes
- Heart rate Mean ± SD (Day-2, 00:00 Hr): 68.8 ± 13.94 beats/minutes
- Heart rate Median (Day-2, 00:00 Hr): 63 beats/minutes
- Heart rate Min (Day-2, 00:00 Hr): 55 beats/minutes
- Diastolic blood pressure Max (Day-2, 00:15 Hr): 90 mm of Hg
- Diastolic blood pressure Mean ± SD (Day-2, 00:15 Hr): 77.4 ± 9.91 mm of Hg
- Diastolic blood pressure Median (Day-2, 00:15 Hr): 76 mm of Hg
- Diastolic blood pressure Min (Day-2, 00:15 Hr): 62 mm of Hg
- Heart rate Max (Day-2, 00:15 Hr): 85 beats/minutes
- Heart rate Mean ± SD (Day-2, 00:15 Hr): 67.4 ± 12.35 beats/minutes
- Heart rate Median (Day-2, 00:15 Hr): 61 beats/minutes
- Heart rate Min (Day-2, 00:15 Hr): 53 beats/minutes
- Diastolic blood pressure Max (Day-2, 00:30 Hr): 84 mm of Hg
- Diastolic blood pressure Mean ± SD (Day-2, 00:30 Hr): 73.4 ± 8.54 mm of Hg
- Diastolic blood pressure Median (Day-2, 00:30 Hr): 71 mm of Hg
- Diastolic blood pressure Min (Day-2, 00:30 Hr): 61 mm of Hg
- Heart rate Max (Day-2, 00:30 Hr): 93 beats/minutes
- Heart rate Mean ± SD (Day-2, 00:30 Hr): 68.2 ± 5.54 beats/minutes
- Heart rate Median (Day-2, 00:30 Hr): 58 beats/minutes
- Heart rate Min (Day-2, 00:30 Hr): 54 beats/minutes
- Diastolic blood pressure Max (Day-2, 00:45 Hr): 86 mm of Hg
- Diastolic blood pressure Mean ± SD (Day-2, 00:45 Hr): 79 ± 7.68 mm of Hg
- Diastolic blood pressure Median (Day-2, 00:45 Hr): 82 mm of Hg
- Diastolic blood pressure Min (Day-2, 00:45 Hr): 66 mm of Hg
- Heart rate Max (Day-2, 00:45 Hr): 97 beats/minutes
- Heart rate Mean ± SD (Day-2, 00:45 Hr): 69 ± 16.80 beats/minutes
- Heart rate Median (Day-2, 00:45 Hr): 63 beats/minutes
- Heart rate Min (Day-2, 00:45 Hr): 53 beats/minutes
- Diastolic blood pressure Max (Day-2, 01:00 Hr): 87 mm of Hg
- Diastolic blood pressure Mean ± SD (Day-2, 01:00 Hr): 79.33 ± 7.58 mm of Hg
- Diastolic blood pressure Median (Day-2, 01:00 Hr): 82 mm of Hg
- Diastolic blood pressure Min (Day-2, 01:00 Hr): 69 mm of Hg
- Heart rate Max (Day-2, 01:00 Hr): 94 beats/minutes
- Heart rate Mean ± SD (Day-2, 01:00 Hr): 72.66 ± 17.15 beats/minutes
- Heart rate Median (Day-2, 01:00 Hr): 72 beats/minutes
- Heart rate Min (Day-2, 01:00 Hr): 52 beats/minutes
- Diastolic blood pressure Max (Day-2, 01:15 Hr): 101 mm of Hg
